Counter-ions that a name gives are not always drawn.
Columns and labels:
[1] = females using the patches; cited from earlier work
[2] = Acute transdermal penetration of 3H-Estradiol and 3H-Estradiol Phosphate in the hairless rat model; assay type: in vivo, female albino hairless rats; settings: 24-hour period
[3] = Transdermal delivery of estradiol and estradiol phosphate in the hairless rat model; total estrogens RIA in plasma
[4] = Transdermal delivery of testosterone and testosterone phosphate in the hairless rat model; total testosterone in plasma; settings: topical carrier cream; for concentration of testosterone in blood after application: 1 μg
[5] = system: rats; experiment: Efficacy of atropine phosphate compared to atropine sulfate: heart rate after intravenous administration; assay type: in vivo; settings: for heart rate after administration: IV 2 mg/kg in phosphate buffer, baseline approx. 350 bpm
Description: The efficacy of atropine phosphate when compared to atropine sulfate was investigated in this example.
Atropine sulfate and atropine phosphate formulated in phosphate buffer and given intravenously (IV) each to two rats at 2 mg/kg resulted similar increases in heart rates.
For example, the baseline heart rate of a rat was approx. 350 bpm and increased to 450 bpm within 15 minutes after administration of atropine (either atropine phosphate or atropine sulfate). Approximately two hours later, normal heart rates were restored. This is regarded as a significant change in pulse rate.

Row | Compound | concentration of testosterone in blood after application [4] | time until normal heart rates were restored ([5]; IV 2 mg/kg) | heart rate after administration [5] [bpm] | other results
1 | C[C@]12CC[C@@H]3c4ccc(O)cc4CC[C@H]3[C@@H]1CC[C@@H]2O [E, Estradiol] |  |  |  | females reporting skin irritation [1]: up to 17%
2 | C[C@]12CC[C@@H]3c4ccc(O)cc4CC[C@H]3[C@@H]1CC[C@@H]2OP(=O)(O)O [EP, Estradiol Phosphate] |  |  |  | levels in the epidermis and dermis [2]: Higher levels; plasma concentration of the hormone compared to the E treatment ([3]; equivalent doses applied, 24-hour period): at least twice; concentration of estradiol in blood versus estradiol application ([3]; over a 24-hour period, P<0.01 at 2, 4 and 16 hours): consistently higher
3 | C[C@]12CC[C@H]3[C@@H](CCC4=CC(=O)CC[C@@]43C)[C@@H]1CC[C@@H]2O [T, Testosterone] | increased |  |  | maximum concentration of total testosterone in plasma (mean±SD) ([4]; 1 μg on about 4 cm^2 dorsal skin, baseline t=0 subtracted): 30.90 ± 11.00 pg/mL
4 | CN1[C@@H]2CC[C@H]1CC(OC(=O)C(CO)c1ccccc1)C2.O=P(O)(O)O (stereo partly drawn) [atropine phosphate] |  | Approximately two | 450 | effect on pulse rate ([5]; IV 2 mg/kg): effective to increase pulse rate
5 | CN1[C@@H]2CC[C@H]1C[C@@H](OC(=O)C(CO)c1ccccc1)C2 (stereo partly drawn) [atropine sulfate, reference compound] |  | Approximately two | 450 | 
6 | Testosterone Phosphate [TP] | increased |  |  | 
